# According to patent publication US7670591B2, “Heteroaryl substituted benzoxazoles” (AstraZeneca AB, priority 2006, dated 2010):
# pIC50, pKd: −log10 of the molar value. Where two headings read alike, the source gives them in different places.
# Legend:
# [1] = cited from earlier work
# [2] = target: T1, synthetic Aβ 1-40 (Homo sapiens, UniProt P05067); experiment: Competition binding assay ([3H]PIB as radioligand)
# T1 construct: using synthetic Aβ 1-40 in 2.7 nM of
# Method: Competition binding was performed in 384-well FB filter plates using synthetic Aβ 1-40 in 2.7 nM of [^3H]PIB (or another ^3H-labeled radioligand when so mentioned) in phosphate buffer at pH 7.5, by adding various concentrations of non-radioactive compounds originally dissolved in DMSO. The binding mixture was incubated for 30 min at room temperature, followed by vacuum filtration, and subsequentially by washing twice with 1% Triton-X100. Scintillation fluid was thereafter added to the collected Aβ 1-40 on the filter plate, and the activity of the bound remaining radioligand ([^3H]PIB or another ^3H-labeled radioligand) was measured using 1450 Microbeta from PerkinElmer (FIG. 1). Specific binding was determined according to the competion binding assay described herein. The determined IC50's in the competion binding assays (using [^3H]PIB as radioligand) of 5 compounds of the present invention are shown in Table 2.
# [3] = target: T2, human synthetic Aβ 1-40 fibrils (Homo sapiens, UniProt P05067); experiment: Saturation binding experiments; settings: amyloid Aβ 1-40 fibrils in vitro, AVG; for pKd: two site binding
# T2 construct: human synthetic Aβ 1-40 fibrils
# T2 sequence (P05067 672-711 limits assumed): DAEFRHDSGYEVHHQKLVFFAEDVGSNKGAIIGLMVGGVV
# Method: Saturation binding experiments were performed in 96-well polypropylene deep well plates. 2 μM human synthetic Aβ 1-40 fibrils in phosphate buffer pH 7.5, or buffer alone as control, were incubated with increasing concentration of a ^3H-labeled radioligand of the present invention for 1 hr at room temperature. The radioactivity still bound to the Aβ 1-40 fibrils at the end of the incubation was detected on FB filters after filtration in a Brandel apparatus using a wash buffer containing 0.1% Triton-X100. Results were corrected for nonspecific, nondisplaceable binding defined as the number of counts from wells without Aβ 1-40 fibrils (replaced with assay buffer).
# [4] = [3H]PIB as radioligand, Table 2
# T1 sequence (P05067 672-711 limits assumed): as above
structure (smiles),measurement,setting,value
CN(C)c1ccc(-c2nc3ccc(I)cc3o2)cc1 [IBOX],brain entrance,[1]; compared with TZDM,relatively higher brain entrance
same,clearance from normal brain tissue,[1]; compared with related analogues,relatively more rapid clearance from normal brain tissue
"CN(C)c1ccc(-c2nc3ccc(O)cc3o2)cn1 [Example 2, 2-[6-(Dimethylamino)pyridin-3-yl]-1,3-benzoxazol-6-ol]",pIC50,[2]; [4],7.07
"COc1ccc2nc(-c3ccc(N(C)C)nc3)oc2c1 [Example 1, 5-(6-Methoxy-1,3-benzoxazol-2-yl)-N,N-dimethylpyridin-2-amine]",pIC50,[2]; [4],6.69
"CNc1ccc(-c2nc3ccc(O)cc3o2)cn1 [Example 5, 2-[6-(Methylamino)pyridin-3-yl]-1,3-benzoxazol-6-ol]",Bmax 1,[3]; site 1,0.9099 pmol/nmol Ab
same,Bmax 2,[3]; site 2,4.298 pmol/nmol Ab
same,pKd,"[3]; site 1, read-out: Kd 1",8.27
same,pKd,"[3]; site 2, read-out: Kd 2",7.20
same,pIC50,[2]; [4],6.74
same,pIC50,"[2]; amyloid Aβ 1-40 fibrils in vitro, AVG",6.74
"COc1ccc2nc(-c3ccc(N(C)C(C)=O)nc3)oc2c1 [Example 4, N-[5-(6-Methoxy-1,3-benzoxazol-2-yl)pyridin-2-yl]-N-methylacetamide]",pIC50,[2]; [4],4.81
"CNc1ccc(-c2nc3ccc(OC)cc3o2)cn1 [Example 3, 5-(6-Methoxy-1,3-benzoxazol-2-yl)-N-methylpyridin-2-amine]",pIC50,[2]; [4],6.73
